The values below come from patent US9914755B2, “Cyclosporin derivatives wherein the MeBmt sidechain has been cyclized” (Allergan, Inc., priority 2015, dated 2018).

As a reminder, the solubility is the concentration that dissolves in the medium under given conditions. Low values mean little dissolved substance, high ones much dissolved substance. The term Ki denotes the equilibrium dissociation constant of an inhibitor or competing ligand from its target. Broadly, the IC50 is the point on the concentration scale where inhibition reaches its midpoint.

The nature of data set [1]: Water Solubility Assay (onset of precipitation in buffer). The following applies: 25 °C, pH 7.4, aqueous buffer, kinetic from dmso stock.
Description: (§2) The aqueous solubility of a compound of Formula I in buffer (pH 7.8) was measured by recording the onset of precipitation of the compound as a function of increasing concentration. The onset of precipitation, if it occurred, was detected by an increase in absorbance at 650 nm.
(§3) Stock solutions of Control and Test Compounds: 10 mM in 100% DMSO.
(§4) 10 mM stock solutions of control and test compounds were prepared in 100% DMSO.
(§5) Assay buffer (247.5 μl) was placed into a flat bottomed transparent 96-well plate. For blank samples, DMSO (2.5 μl) was added. For test and control samples, 2.5 μl of the appropriate DMSO dilution stocks were added to the appropriate well. All test and control compounds were performed in triplicate.
(§6) The plates were sealed with adhesive plate seal and shaken at 250 rpm at 25° C. for 18 h on a plate shaker. After incubation, the plate seals were taken off and any bubbles observed in wells removed. The plates were read on a SpectraMaxM5 with a 5 s pre-shake at 650 nm.
(§7) Data files were transferred to the appropriate worksheet and the solubility range of the compounds was calculated from the data.
Data set [2] has as its target T1, Human recombinant cyclophilin A (CypA) (Homo sapiens, UniProt P62937).
T1 construct: purchased Sigma C3805
Put plainly: Protease-free PPIase assay, cyclophilin A. It is filed as biochemical. On the procedure:
(§1) Protease-Free PPIase Assay The protease-free PPIase assay measures the rate of cis to trans conversion of a peptide substrate catalyzed by the enzyme cyclophilin A or D. Addition of a cyclophilin inhibitor (e.g., a test compound) slows the catalyzed rate and a Ki value is obtained. 35 mM HEPES pH 7.8, filtered through a 0.2 μm filter. 50 μM DTT was added prior to use each day and then the buffer was stored on ice. […] Human recombinant 6-His tagged cyclophilin D (CypD), prepared by the University of Edinburgh, was used to generate CypD inhibition data. Succinimide-[…]-nitroanilide (SUC-AAPF-pNA) (from Bachem AG, L-1400), 20 mg/ml prepared in 0.5 M LiCl in trifluoroethanol. All readings were taken with an Agilent 8453 Spectrophotometer which consisted of a cuvette holder, stirrer and chiller to maintain a stirred cuvette temperature of 10.0±0.1° C. The temperature was monitored by the use of temperature probe. […] The inhibitor was diluted in 100% DMSO, and then added to the assay to a maximum final concentration of 0.5% DMSO in the assay. […] The absorbance was measured at 330 nm for 300 s or 500 s for blank runs (NOTE: the substrate was added in one quick injection and the measurements started immediately to minimize mixing errors). A first order rate equation was fitted to the absorbance data, for each concentration of inhibitor, to obtain the rate constant (the first 10 to 15 seconds were excluded, as mixing causes errors in this portion of the curve). The catalytic rate was calculated from the enzymatic rate constant minus the background rate constant. An exponential curve was generated using the catalytic rate constants versus the inhibitor concentration to obtain the Ki value for the inhibitor. The Ki value is indicative of the binding affinity between the test compound and cyclophilin A.

Data set [3] addresses T2, Human recombinant 6-His tagged cyclophilin D (CypD) (Homo sapiens, UniProt P30405).
T2 construct: 6-His
The data set is described as follows: Protease-free PPIase assay, cyclophilin D. It is filed as biochemical. On the procedure: as §1

A short description of the next data set: physchem. Conditions: 25 °C, pH 7.4, aqueous buffer, kinetic from dmso stock.
The target in the next data set is T3, calcineurin (Homo sapiens, UniProt P62937+P63098+Q08209).
T3 construct: purchased Enzo Life Sciences BML-AK804
The data set is described as follows: Calcineurin Phosphatase (CaN) Assay. It is filed as biochemical. Conditions: in the presence of CypA, 1:1 complex of inhibitor with CypA. The text has this: Calcineurin Phosphatase (CaN) Assay
The calcineurin phosphatase assay is a means for estimating the immunosuppressive potential of a test compound. Calcineurin is a serine-threonine protein phosphatase that on activation dephosphorylates members of the nuclear factor of activated T cells (NFAT), which are important in T lymphocyte activation.
To investigate the immunosuppressive potential of exemplary compounds of Formula I, which are cyclosporin analogs, their ability to inhibit calcineurin activity was measured in the presence and absence of CypA.
The CaN assay kit used is based on a colorimetric assay for measuring calcineurin phosphatase activity, and it is commercially available (Enzo Life Sciences and Calbiochem). Calmodulin is also required for calcineurin activity, and RII phosphopeptide is used as an efficient peptide substrate for calcineurin. […] The detection of free phosphate released is based on the classic Malachite green assay.
Enzo Life Sciences CaN Assay Kit: BML-AK804
For samples ‘without CypA’, a 4-point dilution series of the inhibitor was prepared in duplicate to obtain a final assay concentration of 10, 1, 0.1 and 0.01 μM. For samples ‘with CypA’, a 7-point dilution series was prepared to obtain a 1:1 complex of the inhibitor with CypA; the inhibitor and CypA final assay concentrations of 10, 3.33, 1.11, 0.37, 0.12, 0.04, 0.014 μM were prepared.
using the half area 96 well plates supplied with the kit, 10 μl UPW was added to duplicate wells to provide the non-inhibited control. 10 μl of the inhibitor or the inhibitor/CypA complex was added to the appropriate sample wells. 25 μl of the 2× assay buffer with calmodulin (CaM) was added to all wells, then 5 μl of calcineurin phosphatase (CaN) was added to all wells (40 U per well final concentration) except duplicate ‘no calcineurin blank’ wells to which 5 μL 1× assay buffer was added. The assay plate was placed in an oven at 30° C. for 15 minutes to equilibrate to the reaction temperature. The reaction was started by the addition of 10 μl RII-peptide (0.15 mM final concentration). The reaction was allowed to proceed at 30° C. for a time period in which the reaction is linear for about 60 minutes. The reaction was then terminated by adding 100 μl of the Malachite Green reagent. The color was allowed to develop for 15-30 minutes at room temperature before the absorbance at 620 nm was measured using a plate reader (Molecular Devices—SpectraMax M5). The data were analyzed by subtracting ‘no calcineurin blank’ from all the absorbance readings and plotting the background corrected absorbances against Log10 inhibitor concentration. A sigmoidal-dose response curve was fitted to the data using GraphPad Prism Software.
It exerts its immunosuppressive activity by binding to CypA to form a complex, which then binds to calcineurin and thereby inhibits calcineurin activity.

Setting [4] is: human recombinant CypA, 10 °C, SUC-AAPF-pNA substrate, read-out: CypA Protease-free PPIase Assay Ki.
Where [5] appears, read: human recombinant 6-His CypD, 10 °C, SUC-AAPF-pNA substrate, read-out: CypD Protease-free PPIase Assay Ki.

Values after ≈ are worked out from the molar mass of the structure shown. Read-outs that look alike come from different tables or passages of the source.

T2 sequence (P30405 30-207): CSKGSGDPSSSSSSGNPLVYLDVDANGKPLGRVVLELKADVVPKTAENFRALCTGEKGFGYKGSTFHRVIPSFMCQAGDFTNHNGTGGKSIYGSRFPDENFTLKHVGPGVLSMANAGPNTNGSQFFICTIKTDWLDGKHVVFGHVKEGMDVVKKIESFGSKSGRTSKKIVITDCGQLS
T1 sequence (P62937 whole entry): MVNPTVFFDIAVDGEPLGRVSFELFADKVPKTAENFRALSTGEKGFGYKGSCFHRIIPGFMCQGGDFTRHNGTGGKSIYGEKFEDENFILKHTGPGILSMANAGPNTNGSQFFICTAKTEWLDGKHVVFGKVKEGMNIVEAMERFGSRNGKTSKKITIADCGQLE
Description for physchem: as §2, §3, §4, §5, §6, §7

As for `CC(C)C[C@@H]1C(=O)N(C)[C@H](CC(C)C)C(=O)N(C)[C@H](C(C)C)C(=O)N(C)[C@H]([C@@H]2OCC[C@H]2C)C(=O)N[C@H](C)C(=O)N(C)CC(=O)N(C)[C@@H](CC(C)C)C(=O)N[C@H](C(C)C)C(=O)N(C)[C@H](CC(C)C)C(=O)N[C@H](C)C(=O)N[C@@H](C)C(=O)N1C` [Compound 9, [(2S)-2-(methylamino)-2-[(2R,3R)-3-methyltetrahydrofuran-2-yl]acetic acid]^1 cyclosporin B], in data set [1], the solubility at 18 h is above 100 µM. The values for the Ki in data set [2] and in data set [3] were 8600 nM and 200 nM, respectively.

With `CC[C@H]1NC(=O)[C@H]([C@H]2NCC[C@H]2C)N(C)C(=O)[C@@H](C(C)C)N(C)C(=O)[C@@H](CC(C)C)N(C)C(=O)[C@@H](CC(C)C)N(C)C(=O)[C@H](C)NC(=O)[C@@H](C)NC(=O)[C@@H](CC(C)C)N(C)C(=O)[C@@H](C(C)C)NC(=O)[C@H](CC(C)C)N(C)C(=O)[C@@H](C)N(C)C1=O` [Compound 20, [(2S)-2-(methylamino)-2-[(2S,3R)-3-methylpyrrolidin-2-yl]acetic acid]^1 [(R)-methyl-Sar]^3 cyclosporin A], the Ki in data set [2] (setting [4]) was 149 nM; in data set [3] (setting [5]), 36 nM. The compound also yielded a solubility at 18 h in the data set “physchem” above 100 µM. Besides, at calcineurin, the IC50 was above 10 µM.

`CC[C@H]1NC(=O)[C@@H](C2OC(C)C[C@H]2C)N(C)C(=O)[C@@H](C(C)C)N(C)C(=O)[C@@H](CC(C)C)N(C)C(=O)[C@@H](CC(C)C)N(C)C(=O)[C@H](C)NC(=O)[C@@H](C)NC(=O)[C@@H](CC(C)C)N(C)C(=O)[C@@H](C(C)C)NC(=O)[C@H](CC(C)C)N(C)C(=O)[C@@H](C)N(C)C1=O` (stereo partly drawn) [Compound 26, [(2S)-2-[(2R,3R)-3,5-dimethyltetrahydrofuran-2-yl]-2-(methylamino)acetic acid]^1 [(R)-methyl-Sar]^3 cyclosporin A]: the Ki in data set [2] (setting [4]) came out at 275 nM; in data set [3] (setting [5]), 64 nM. The amount in solution in “physchem” (solubility at 18 h) came to 75 µM (≈ 90.2 µg/mL). Further, the IC50 at calcineurin is above 10 µM.

As for `CC[C@H]1NC(=O)[C@H]([C@@H]2[C@H](C)CCN2C)N(C)C(=O)[C@@H](C(C)C)N(C)C(=O)[C@@H](CC(C)C)N(C)C(=O)[C@@H](CC(C)C)N(C)C(=O)[C@H](C)NC(=O)[C@@H](C)NC(=O)[C@@H](CC(C)C)N(C)C(=O)[C@@H](C(C)C)NC(=O)[C@H](CC(C)C)N(C)C(=O)[C@@H](C)N(C)C1=O` [Compound 19, [(2S)-2-[(2S,3R)-1,3-dimethylpyrrolidin-2-yl]-2-(methylamino)acetic acid]^1 [(R)-methyl-Sar]^3 cyclosporin A], the results for the Ki in data set [2] (setting [4]) and in data set [3] (setting [5]) were 404 nM and 130 nM, respectively. Also, the solubility at 18 h in the data set “physchem” is above 100 µM. For the same compound, the IC50 on calcineurin came out at 8.99 µM.

As for `CC(C)C[C@@H]1C(=O)N(C)[C@H](CC(C)C)C(=O)N(C)[C@H](C(C)C)C(=O)N(C)[C@H]([C@@H]2OCC[C@H]2C)C(=O)N[C@H](C(C)C)C(=O)N(C)CC(=O)N(C)[C@@H](CC(C)C)C(=O)N[C@H](C(C)C)C(=O)N(C)[C@H](CC(C)C)C(=O)N[C@H](C)C(=O)N[C@@H](C)C(=O)N1C` [Compound 7, [(2S)-2-(methylamino)-2-[(2R,3R)-3-methyltetrahydrofuran-2-yl]acetic acid]^1 cyclosporin D], the Ki amounted to 400 nM in data set [2] (setting [4]) and 81 nM in data set [3] (setting [5]). In “physchem”, this compound showed a solubility at 18 h of 75 µM (≈ 89.1 µg/mL). Besides, the IC50 on calcineurin is above 10 µM.
